Earlier results, collected in patent US20150147306A1, “COMPOSITION FOR TREATING A CIRCADIAN RHYTHM DISORDER” (priority 2012, published 2015).

Settings: in humans

half-life in the serum: 35 to 50 min
Structure (SMILES): COc1ccc2[nH]cc(CCNC(C)=O)c2c1 [melatonin]
